Drawing on article PMC5485984, “Sugar-Binding Profiles of Chitin-Binding Lectins from the Hevein Family: A Comprehensive Study” (International Journal of Molecular Sciences, 2017), this text covers Kd for two molecules.

pKd: −log10 of the molar value.

The target in the assay is T1, DSA (Datura stramonium agglutinin) (Datura stramonium, UniProt A0A089ZWN7).
T1 construct: gene dsa-b; four hevein domains and extensin-like domain
T1 sequence (A0A089ZWN7 24-279): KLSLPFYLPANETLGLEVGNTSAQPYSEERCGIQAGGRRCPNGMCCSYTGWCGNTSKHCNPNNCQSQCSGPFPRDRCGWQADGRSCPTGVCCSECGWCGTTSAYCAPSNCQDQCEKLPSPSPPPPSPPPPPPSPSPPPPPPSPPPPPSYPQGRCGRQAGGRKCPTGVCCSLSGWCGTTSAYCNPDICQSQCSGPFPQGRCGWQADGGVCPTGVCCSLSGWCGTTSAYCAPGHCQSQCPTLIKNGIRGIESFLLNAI
Further details: Frontal affinity chromatography, pyridylaminated oligosaccharides on Sepharose-immobilized lectin; Kd = Bt/(V-V0). The following applies: binder. The procedure:
For systematic comparison of sugar-binding properties of the six chitin-binding lectins, FAC was carried out with a previously established procedure. Briefly, to determine the Kd values of each of the six chitin-binding lectins for 124 PA-oligosaccharides, each of the lectins was immobilized on activated Sepharose at several concentrations: one for concentration-dependent analysis to determine the effective ligand content Bt (expressed in nmol) of a standard column, from which Kd values for a panel of PA-oligosaccharides were determined according to a simplified basic equation of FAC, Kd = Bt/(V − V0). The other(s) are supplementary to cover a wide range of possible Kd values, which is in direct relation to the observed value of V − V0 (for more detail, see Materials and Methods). […] It is often useful to discuss lectin-oligosaccharide interactions in terms of an affinity constant, Ka (1/Kd), instead of Kd. […] This was applied in the cases of DSA (6.0 and 1.5 mg/mL), UDA (6.0, 3.0, 1.0, and 0.3 mg/mL), WGA (7.0, 2.0, and 0.5 mg/mL), and LEL (6.0 and 0.5 mg/mL).

In turn, `OC[C@@H](O)[C@@H](O[C@@H]1O[C@H](CO)[C@H](O)[C@H](O)[C@H]1O)[C@H](O)[C@@H](O)CNc1ccccn1` [compound 701, 701] gave a pKd of 4.51. The same measure for `CC(=O)N[C@@H](CNc1ccccn1)[C@@H](O)[C@H](O[C@@H]1O[C@H](CO)[C@H](O)[C@H](O)[C@H]1O)[C@H](O)CO` [compound 901, 901]: 4.06.
